Source: the supplement of paper PMC4862054

Tests used:
Settings in all cases: incubation time: 72 h
MFM-223 [1] = assay: normalised response (% of control), CellTiter-Glo; higher = more viable cells (100 = DMSO, 0 = benzethonium chloride kill control)
Outline: (§1)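 A 20 µl suspension of breast cancer cells was seeded into each well of 384-well plates containing compound at 5 concentrations in 10-fold steps over a compound-specific 10,000-fold range. After 72 h incubation, CellTox Green fluorescence (485/520 nm) was read first, and CellTiter-Glo luminescence was read after 10 min at room temperature. Each plate was normalised against 0.1 % DMSO (100) and a positive kill control (0), and each value is the normalised signal at one concentration.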

SK-BR-3 = assay: as above
Outline: as §1

BT-474 [2] = assay: as above
Outline: as §1

CAL-51 [3] = assay: as above
Outline: as §1

HCC1599 [4] = assay: as above
Outline: as §1

MCF-10A [5] = assay: as above
Outline: as §1

MDA-MB-436 [6] = assay: as above
Outline: as §1

CAL-85-1 [7] = assay: as above
Outline: as §1

Hs578T [8] = assay: as above
Outline: as §1

HCC1937 [9] = assay: as above
Outline: as §1

DU-4475 [10] = assay: as above
Outline: as §1

CAL-148 [11] = assay: as above
Outline: as §1

HCC1143 [12] = assay: as above
Outline: as §1

MDA-MB-468 [13] = assay: as above
Outline: as §1

CAL-120 [14] = assay: as above
Outline: as §1

MDA-MB-231 [15] = assay: as above
Outline: as §1

MDA-MB-453 [16] = assay: as above
Outline: as §1

HDQ-P1 [17] = assay: as above
Outline: as §1

BT-549 [18] = assay: as above
Outline: as §1

MFM-223 [19] = assay: normalised response (% of control), CellTox Green; higher = less cell death (100 = DMSO, 0 = benzethonium chloride kill control)
Outline: as §1

BT-474 [20] = assay: as above
Outline: as §1

CAL-51 [21] = assay: as above
Outline: as §1

HCC1599 [22] = assay: as above
Outline: as §1

MCF-10A [23] = assay: as above
Outline: as §1

MDA-MB-436 [24] = assay: as above
Outline: as §1

CAL-85-1 [25] = assay: as above
Outline: as §1

Hs578T [26] = assay: as above
Outline: as §1

DU-4475 [27] = assay: as above
Outline: as §1

CAL-148 [28] = assay: as above
Outline: as §1

HCC1143 [29] = assay: as above
Outline: as §1

MDA-MB-468 [30] = assay: as above
Outline: as §1

CAL-120 [31] = assay: as above
Outline: as §1

MDA-MB-231 [32] = assay: as above
Outline: as §1

MDA-MB-453 [33] = assay: as above
Outline: as §1

HDQ-P1 [34] = assay: as above
Outline: as §1

BT-549 [35] = assay: as above
Outline: as §1

HCC1937 [36] = assay: as above
Outline: as §1

SMILES | normalised response (MFM-223 [1]) | normalised response (SK-BR-3) | normalised response (BT-474 [2]) | normalised response (CAL-51 [3]) | normalised response (HCC1599 [4]) | normalised response (MCF-10A [5]) | normalised response (MDA-MB-436 [6]) | normalised response (CAL-85-1 [7]) | normalised response (Hs578T [8]) | normalised response (HCC1937 [9]) | normalised response (DU-4475 [10]) | normalised response (CAL-148 [11]) | normalised response (HCC1143 [12]) | normalised response (MDA-MB-468 [13]) | normalised response (CAL-120 [14]) | normalised response (MDA-MB-231 [15]) | normalised response (MDA-MB-453 [16]) | normalised response (HDQ-P1 [17]) | normalised response (BT-549 [18]) | normalised response (MFM-223 [19]) | normalised response (BT-474 [20]) | normalised response (CAL-51 [21]) | normalised response (HCC1599 [22]) | normalised response (MCF-10A [23]) | normalised response (MDA-MB-436 [24]) | normalised response (CAL-85-1 [25]) | normalised response (Hs578T [26]) | normalised response (DU-4475 [27]) | normalised response (CAL-148 [28]) | normalised response (HCC1143 [29]) | normalised response (MDA-MB-468 [30]) | normalised response (CAL-120 [31]) | normalised response (MDA-MB-231 [32]) | normalised response (MDA-MB-453 [33]) | normalised response (HDQ-P1 [34]) | normalised response (BT-549 [35]) | normalised response (HCC1937 [36])
C=CC(=O)Nc1cc2c(Nc3ccc(F)c(Cl)c3)ncnc2cc1OCCCN1CCOCC1 [Canertinib] (1000 nM) | 95% | 27.2% | 76.8% | 62.2% | 81.2% | 32.2% | 90.5% | 49.2% | 104% | 88.1% | 101% | 75.3% | 91.5% | 62% | 94.2% | 78% | 73.6% | 67.4% | 80.1% | 106% | 83.2% | 93.2% | 114% | 80.4% | 88.9% | 73.3% | 109% | 104% | 100% | 102% | 140% | 97.7% | 104% | 102% | 97.2% | 135% | 
Nc1ccccc1NC(=O)c1ccc(CNC(=O)OCc2cccnc2)cc1 [Entinostat] (1000 nM) | 98.2% | 88.8% | 92.4% | 45.2% | 83.6% | 142% | 90.5% | 105% | 86.8% | 87.8% | 102% | 93.7% | 98.1% | 91.4% | 97% | 93.2% | 89.8% | 93.5% | 62.1% | 90.1% | 99.8% | 70.2% | 90.1% | 90.1% | 86.4% | 107% | 75% | 99.9% | 98.3% |  | 65.9% | 102% | 108% | 102% | 109% | 114% | 116%
Nc1nc(F)nc2c1ncn2[C@@H]1O[C@H](CO)[C@@H](O)[C@@H]1O [Fludarabine] (1000 nM) | 107% | 107% | 110% | 131% | 108% | 106% | 102% | 98.5% | 102% | 99.3% | 102% | 97.2% | 106% | 102% | 97.8% | 108% | 101% | 102% | 98.2% | 101% | 102% | 122% | 105% | 79.7% |  | 109% | 50.2% | 105% | 99.5% | 117% | 124% | 101% | 114% | 101% | 111% | 107% | 88.6%
C=CC(=O)N1CCC[C@@H](n2nc(-c3ccc(Oc4ccccc4)cc3)c3c(N)ncnc32)C1 [Ibrutinib] (100 nM) | 107% | 27.5% | 97.5% | 73.1% | 118% | 91% | 102% | 90.4% | 106% | 97.6% | 105% | 95.4% | 100% | 93.1% | 96.2% | 105% | 72.5% | 82.5% | 111% |  | 83.1% | 93.6% | 99.2% | 101% | 92.1% | 84.1% | 56.5% | 103% | 99.6% | 92.1% | 122% | 103% | 111% | 104% | 102% | 117% | 
CCN(CC)CCCC(C)Nc1c2ccc(Cl)cc2nc2ccc(OC)cc12 (stereo not drawn) [Mepacrine] (5000 nM) | 92.5% | 102% | 104% | 113% | 101% | 108% | 103% | 101% | 104% | 101% | 97.3% | 88.7% | 98% | 94.4% | 110% | 98.1% | 102% | 112% | 93% | 97.6% | 97.2% | 103% | 98% | 99.3% | 99.8% | 106% | 84.3% | 102% | 71.8% |  | 89.3% | 101% | 81.8% | 107% | 111% | 57.4% | 105%
O=C(O)C(=O)O.[NH-][C@@H]1CCCC[C@H]1[NH-].[Pt+2] [Oxaliplatin] (1000 nM) | 92.3% | 92.8% | 97.7% | 128% | 100% | 96.5% | 106% | 95.9% | 104% | 99.5% | 94.4% | 82.5% | 95.5% | 91.1% | 96.9% | 97% | 89.2% | 106% | 105% | 85.6% | 95.9% | 108% | 93.9% | 107% | 95.7% | 102% | 63.9% | 98.1% |  | 101% | 157% | 102% | 98.2% | 106% | 102% | 121% | 97.7%
Cc1cnc(NC(=O)Nc2cc(Br)c(C)cc2OC[C@@H]2CNCCO2)cn1 [Rabusertib] (100 nM) | 100% | 109% | 103% | 72.5% | 108% | 112% | 113% | 99% | 98.7% | 92.4% | 99.1% | 107% | 106% | 101% | 98.1% | 104% | 88.1% | 105% | 104% |  | 102% | 85.5% | 103% | 105% | 110% | 102% | 55.6% | 106% | 108% | 97.3% | 128% | 99.9% | 118% | 106% | 80.4% | 123% | 128%
CNC(=O)c1cc(Oc2ccc(NC(=O)Nc3cc(C(C)(C)C)nn3-c3ccc4ncccc4c3)c(F)c2)ccn1 [Rebastinib] (100 nM) | 65.3% | 104% | 97% | 120% | 110% | 119% | 110% | 101% | 114% | 108% | 101% | 105% | 110% | 113% | 92.2% | 90% | 101% | 114% | 111% | 95.3% | 98.6% | 105% | 99.2% |  | 97.3% | 103% | 98.8% | 103% | 84% | 113% | 118% | 101% | 90.2% | 101% | 94.4% | 95% | 112%
COc1cc2nccc(Oc3ccc(NC(=O)Nc4cc(C)on4)c(Cl)c3)c2cc1OC [Tivozanib] (1000 nM) | 60.3% | 88.5% | 81.3% | 90.8% | 92.9% | 99.2% | 101% | 103% | 104% | 95.2% | 101% | 103% | 95.9% | 89.5% | 93.1% | 89% | 87.7% | 98.6% | 111% | 102% | 101% | 87.7% | 104% | 105% | 70.6% | 95.5% | 93% | 96.5% | 104% | 89.3% | 138% | 96.6% | 110% |  | 92.8% | 129% | 134%
